Test results as given in ChEMBL document CHEMBL2021894, “The Discovery of VX-745: A Novel and Selective p38α Kinase Inhibitor” (ACS Med Chem Lett, 2011).
Activity calls are given as the source filed them. The rule behind the calls is not given here.

Columns and labels:
[1] = biological target: Serine/threonine-protein kinase 3 (Homo sapiens) (UniProt Q13188); conditions: 2 uM
Description: Inhibition of Mst2 at 2 uM

[2] = biological target: Cyclin-dependent kinase 1 (Homo sapiens) (UniProt P06493); conditions: 2 uM
Description: Inhibition of CDK1 at 2 uM

Cytochrome P450 2C19 = Cytochrome P450 2C19 (Homo sapiens, UniProt P33261); test: Inhibition of human CYP2C19; format: ADME
[3] = Cmax in Sprague-Dawley rat at 43 mg/kg, po; format: ADME, organism-based; design: dose 43 mg/kg, route oral; conditions: in vivo
[4] = Clearance in BALB/c mouse at 2 mg/kg, iv; format: ADME, organism-based; design: dose 2 mg/kg, route intravenous; conditions: in vivo
[5] = Volume of distribution at steady state in beagle dog at 13.8 mg/kg, iv; format: ADME, organism-based, Canis lupus familiaris; design: dose 13.8 mg/kg, route intravenous; conditions: in vivo, read-out: Vdss
Mus musculus = test: Antiarthritic activity in complete Freund's adjuvant-immunized DBA/1J mouse assessed as inhibition of type 2 collagen-induced paw inflammation at 5 mg/kg, po bid measured on day 20; format: functional; conditions: 480 h
[6] = biological target: Serine/threonine-protein kinase Sgk1 (Homo sapiens) (UniProt O00141); test: Inhibition of SGK at 2 uM
Sequence of Serine/threonine-protein kinase Sgk1 (Homo sapiens) (O00141 whole entry): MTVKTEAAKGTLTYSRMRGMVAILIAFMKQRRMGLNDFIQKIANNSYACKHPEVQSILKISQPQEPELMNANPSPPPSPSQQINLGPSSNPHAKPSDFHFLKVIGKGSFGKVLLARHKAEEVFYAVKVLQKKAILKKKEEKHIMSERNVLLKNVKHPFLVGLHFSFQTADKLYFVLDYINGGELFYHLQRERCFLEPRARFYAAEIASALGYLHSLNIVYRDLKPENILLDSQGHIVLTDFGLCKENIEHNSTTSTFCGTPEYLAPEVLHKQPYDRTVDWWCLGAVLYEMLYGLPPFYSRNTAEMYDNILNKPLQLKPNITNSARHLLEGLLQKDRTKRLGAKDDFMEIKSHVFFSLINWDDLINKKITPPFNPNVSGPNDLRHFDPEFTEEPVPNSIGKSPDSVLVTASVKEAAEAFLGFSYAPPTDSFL

[7] = biological target: Protein kinase C beta type (Homo sapiens) (UniProt P05771); test: Inhibition of PKCb2 at 2 uM
Sequence of Protein kinase C beta type (Homo sapiens) (P05771 2-671 limits assumed): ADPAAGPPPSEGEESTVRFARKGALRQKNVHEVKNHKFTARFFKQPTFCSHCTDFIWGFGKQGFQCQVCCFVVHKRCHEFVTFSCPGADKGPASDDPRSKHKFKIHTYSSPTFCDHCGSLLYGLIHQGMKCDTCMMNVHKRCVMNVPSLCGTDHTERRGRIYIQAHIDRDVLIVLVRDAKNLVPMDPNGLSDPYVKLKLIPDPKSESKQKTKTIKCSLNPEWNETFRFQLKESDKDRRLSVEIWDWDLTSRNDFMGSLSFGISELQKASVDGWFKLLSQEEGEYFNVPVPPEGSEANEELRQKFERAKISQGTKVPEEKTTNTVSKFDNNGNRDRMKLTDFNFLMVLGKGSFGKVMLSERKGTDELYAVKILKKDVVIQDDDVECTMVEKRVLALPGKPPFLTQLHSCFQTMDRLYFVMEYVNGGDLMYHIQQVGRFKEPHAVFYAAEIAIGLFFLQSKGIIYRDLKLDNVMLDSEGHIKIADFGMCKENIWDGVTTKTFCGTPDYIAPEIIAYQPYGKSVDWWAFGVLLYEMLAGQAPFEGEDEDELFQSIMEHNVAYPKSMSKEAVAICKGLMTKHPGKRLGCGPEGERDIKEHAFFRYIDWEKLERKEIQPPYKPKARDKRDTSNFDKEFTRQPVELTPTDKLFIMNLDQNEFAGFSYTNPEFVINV

[8] = biological target: MAP kinase-activated protein kinase 5 (Homo sapiens) (UniProt Q8IW41); test: Inhibition of PRAK at 2 uM
Sequence of MAP kinase-activated protein kinase 5 (Homo sapiens) (Q8IW41 whole entry): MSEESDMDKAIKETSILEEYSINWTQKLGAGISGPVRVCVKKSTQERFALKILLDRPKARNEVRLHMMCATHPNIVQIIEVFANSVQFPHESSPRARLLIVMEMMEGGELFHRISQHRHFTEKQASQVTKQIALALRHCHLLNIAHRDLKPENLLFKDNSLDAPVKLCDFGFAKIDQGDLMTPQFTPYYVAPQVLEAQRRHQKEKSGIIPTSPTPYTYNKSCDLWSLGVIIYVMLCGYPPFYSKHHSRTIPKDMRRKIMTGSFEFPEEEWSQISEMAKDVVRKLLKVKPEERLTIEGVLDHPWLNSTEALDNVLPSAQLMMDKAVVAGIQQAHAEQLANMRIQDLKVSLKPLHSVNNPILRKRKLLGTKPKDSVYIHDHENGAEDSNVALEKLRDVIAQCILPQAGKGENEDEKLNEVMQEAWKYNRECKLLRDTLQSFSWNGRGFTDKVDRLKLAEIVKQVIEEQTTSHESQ

[9] = Half life in BALB/c mouse at 40 mg/kg, po; format: ADME, organism-based; design: dose 40 mg/kg, route oral; conditions: in vivo
[10] = biological target: Tyrosine-protein kinase receptor UFO (Homo sapiens) (UniProt P30530); conditions: 2 uM
Description: Inhibition of Axl at 2 uM

[11] = Volume of distribution at steady state in Sprague-Dawley rat at 4.8 mg/kg, iv; format: ADME, organism-based; design: dose 4.8 mg/kg, route intravenous; conditions: in vivo, read-out: Vdss
[12] = Half life in Sprague-Dawley rat at 43 mg/kg, po; format: ADME, organism-based; design: dose 43 mg/kg, route oral; conditions: in vivo
[13] = Inhibition of Gsk3 by filter binding assay
[14] = biological target: Dual specificity mitogen-activated protein kinase kinase 6 (Homo sapiens) (UniProt P52564); test: Inhibition of MKK6 at 2 uM
Sequence of Dual specificity mitogen-activated protein kinase kinase 6 (Homo sapiens) (P52564 whole entry): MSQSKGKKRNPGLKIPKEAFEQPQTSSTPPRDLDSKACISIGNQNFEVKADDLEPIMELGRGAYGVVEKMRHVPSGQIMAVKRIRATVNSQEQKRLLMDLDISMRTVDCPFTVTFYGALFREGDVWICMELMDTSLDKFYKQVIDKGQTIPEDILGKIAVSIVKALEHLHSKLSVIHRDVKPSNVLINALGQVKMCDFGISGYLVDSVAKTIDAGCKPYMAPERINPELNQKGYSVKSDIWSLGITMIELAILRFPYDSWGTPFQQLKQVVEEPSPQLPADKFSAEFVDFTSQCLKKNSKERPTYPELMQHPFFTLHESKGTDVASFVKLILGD

[15] = Half life in beagle dog at 33 mg/kg, po; format: ADME, organism-based, Canis lupus familiaris; design: dose 33 mg/kg, route oral; conditions: in vivo
[16] = biological target: Mitogen-activated protein kinase 1 (Homo sapiens) (UniProt P28482); test: Inhibition of ERK2 using ATGPLSPGPFGRR as substrate at 100 uM by spectrophotometric enzyme-coupled assay
Sequence of Mitogen-activated protein kinase 1 (Homo sapiens) (P28482 whole entry): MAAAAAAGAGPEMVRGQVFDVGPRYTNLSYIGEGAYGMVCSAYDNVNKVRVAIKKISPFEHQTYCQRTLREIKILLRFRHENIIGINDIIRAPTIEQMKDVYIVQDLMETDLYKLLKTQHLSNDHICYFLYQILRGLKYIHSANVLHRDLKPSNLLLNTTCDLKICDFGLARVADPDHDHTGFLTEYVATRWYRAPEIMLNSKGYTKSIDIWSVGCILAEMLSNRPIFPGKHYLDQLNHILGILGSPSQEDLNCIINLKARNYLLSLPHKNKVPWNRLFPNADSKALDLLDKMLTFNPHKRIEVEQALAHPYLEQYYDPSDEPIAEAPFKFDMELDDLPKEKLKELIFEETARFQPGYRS

[17] = biological target: Tyrosine-protein kinase Fyn (Homo sapiens) (UniProt P06241); test: Inhibition of Fyn at 2 uM
[18] = biological target: Tyrosine-protein kinase Lyn (Homo sapiens) (UniProt P07948); conditions: 2 uM
Description: Inhibition of Lyn at 2 uM

[19] = biological target: Tyrosine-protein kinase Blk (Homo sapiens) (UniProt P51451); conditions: 2 uM
Description: Inhibition of Blk at 2 uM

[20] = biological target: Tyrosine-protein kinase Fes/Fps (Homo sapiens) (UniProt P07332); conditions: 2 uM
Sequence of Tyrosine-protein kinase Fes/Fps (Homo sapiens) (P07332 whole entry): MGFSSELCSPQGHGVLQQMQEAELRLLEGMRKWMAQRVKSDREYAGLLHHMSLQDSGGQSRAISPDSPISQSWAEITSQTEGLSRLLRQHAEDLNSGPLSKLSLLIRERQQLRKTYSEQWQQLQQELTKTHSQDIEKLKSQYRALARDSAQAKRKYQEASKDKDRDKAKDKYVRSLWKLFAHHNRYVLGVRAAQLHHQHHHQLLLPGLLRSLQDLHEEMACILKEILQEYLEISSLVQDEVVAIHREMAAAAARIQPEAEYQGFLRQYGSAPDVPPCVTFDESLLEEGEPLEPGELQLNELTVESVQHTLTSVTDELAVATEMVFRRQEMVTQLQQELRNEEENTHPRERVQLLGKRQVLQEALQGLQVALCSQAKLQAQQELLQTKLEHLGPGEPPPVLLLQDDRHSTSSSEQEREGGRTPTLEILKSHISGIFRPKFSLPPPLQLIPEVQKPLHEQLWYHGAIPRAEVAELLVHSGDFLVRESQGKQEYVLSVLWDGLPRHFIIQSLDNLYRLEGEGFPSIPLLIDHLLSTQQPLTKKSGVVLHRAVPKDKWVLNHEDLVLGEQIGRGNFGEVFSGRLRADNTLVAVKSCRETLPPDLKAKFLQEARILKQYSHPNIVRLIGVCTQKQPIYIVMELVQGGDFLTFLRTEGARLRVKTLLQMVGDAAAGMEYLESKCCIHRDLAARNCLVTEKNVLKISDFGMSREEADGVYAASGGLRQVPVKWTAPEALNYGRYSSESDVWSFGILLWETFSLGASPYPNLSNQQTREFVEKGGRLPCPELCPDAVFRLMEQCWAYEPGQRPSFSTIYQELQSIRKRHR
Description: Inhibition of FES at 2 uM

[21] = biological target: Mitogen-activated protein kinase 10 (Homo sapiens) (UniProt P53779); test: Inhibition of JNK3 using KRELVEPLTPSGEAPNQALLR as substrate at 100 uM by spectrophotometric enzyme-coupled assay
[22] = biological target: Serine/threonine-protein kinase PAK 2 (Homo sapiens) (UniProt Q13177); conditions: 2 uM
Sequence of Serine/threonine-protein kinase PAK 2 (Homo sapiens) (Q13177 whole entry): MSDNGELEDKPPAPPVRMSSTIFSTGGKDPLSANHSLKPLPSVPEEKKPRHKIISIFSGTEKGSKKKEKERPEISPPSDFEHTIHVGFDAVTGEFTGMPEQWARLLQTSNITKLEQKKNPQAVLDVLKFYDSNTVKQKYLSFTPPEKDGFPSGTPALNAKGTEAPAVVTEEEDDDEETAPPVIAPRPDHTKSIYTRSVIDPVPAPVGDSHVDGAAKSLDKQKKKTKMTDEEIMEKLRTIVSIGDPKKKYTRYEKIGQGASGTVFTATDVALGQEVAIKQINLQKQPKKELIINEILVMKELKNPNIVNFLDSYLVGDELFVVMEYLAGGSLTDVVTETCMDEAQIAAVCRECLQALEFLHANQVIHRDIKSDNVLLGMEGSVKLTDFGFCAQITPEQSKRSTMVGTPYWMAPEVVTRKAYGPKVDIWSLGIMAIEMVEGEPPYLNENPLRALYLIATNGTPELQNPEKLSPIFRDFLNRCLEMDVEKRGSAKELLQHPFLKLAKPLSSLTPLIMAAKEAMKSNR
Description: Inhibition of PAK2 at 2 uM

[23] = biological target: Fibroblast growth factor receptor 3 (Homo sapiens) (UniProt P22607); test: Inhibition of FGFR3 at 2 uM
[24] = Oral bioavailability in BALB/c mouse at 40 mg/kg; format: ADME, organism-based; conditions: in vivo
[25] = AUC in BALB/c mouse at 2 mg/kg, iv; format: ADME, organism-based; design: dose 2 mg/kg, route intravenous; conditions: plasma
Cytochrome P450 2C9 = Cytochrome P450 2C9 (Homo sapiens, UniProt P11712); test: Inhibition of human CYP2C9; format: ADME
Sequence of Cytochrome P450 2C9 (P11712 whole entry): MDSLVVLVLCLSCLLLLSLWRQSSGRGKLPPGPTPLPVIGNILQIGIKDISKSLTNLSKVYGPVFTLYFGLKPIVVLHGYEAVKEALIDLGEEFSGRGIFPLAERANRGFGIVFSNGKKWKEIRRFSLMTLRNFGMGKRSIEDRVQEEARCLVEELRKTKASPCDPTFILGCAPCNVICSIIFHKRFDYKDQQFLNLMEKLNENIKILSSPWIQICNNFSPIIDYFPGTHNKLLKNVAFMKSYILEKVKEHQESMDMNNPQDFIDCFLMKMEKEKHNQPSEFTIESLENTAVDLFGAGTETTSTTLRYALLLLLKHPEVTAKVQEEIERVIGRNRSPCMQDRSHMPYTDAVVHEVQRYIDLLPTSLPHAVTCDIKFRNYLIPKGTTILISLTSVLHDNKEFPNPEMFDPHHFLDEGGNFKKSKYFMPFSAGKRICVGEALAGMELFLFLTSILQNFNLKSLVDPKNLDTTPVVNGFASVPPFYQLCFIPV

Cytochrome P450 3A4 = Cytochrome P450 3A4 (Homo sapiens, UniProt P08684); test: Inhibition of human CYP3A4; format: ADME
Sequence of Cytochrome P450 3A4 (P08684 whole entry): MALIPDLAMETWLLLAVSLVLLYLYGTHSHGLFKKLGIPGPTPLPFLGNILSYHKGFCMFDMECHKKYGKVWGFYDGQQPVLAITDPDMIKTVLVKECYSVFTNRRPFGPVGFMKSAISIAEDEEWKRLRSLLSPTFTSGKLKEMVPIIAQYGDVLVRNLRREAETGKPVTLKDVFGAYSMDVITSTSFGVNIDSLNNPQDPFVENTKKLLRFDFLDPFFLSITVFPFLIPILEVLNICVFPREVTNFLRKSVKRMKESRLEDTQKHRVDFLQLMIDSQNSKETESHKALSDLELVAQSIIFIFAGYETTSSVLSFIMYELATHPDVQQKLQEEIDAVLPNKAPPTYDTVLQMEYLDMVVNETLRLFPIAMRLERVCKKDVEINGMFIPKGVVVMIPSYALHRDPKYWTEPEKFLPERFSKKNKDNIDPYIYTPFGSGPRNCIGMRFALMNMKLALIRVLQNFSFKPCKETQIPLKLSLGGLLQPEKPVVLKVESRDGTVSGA

Sequence of Cyclin-dependent kinase 1 (Homo sapiens) (P06493 whole entry, looked up): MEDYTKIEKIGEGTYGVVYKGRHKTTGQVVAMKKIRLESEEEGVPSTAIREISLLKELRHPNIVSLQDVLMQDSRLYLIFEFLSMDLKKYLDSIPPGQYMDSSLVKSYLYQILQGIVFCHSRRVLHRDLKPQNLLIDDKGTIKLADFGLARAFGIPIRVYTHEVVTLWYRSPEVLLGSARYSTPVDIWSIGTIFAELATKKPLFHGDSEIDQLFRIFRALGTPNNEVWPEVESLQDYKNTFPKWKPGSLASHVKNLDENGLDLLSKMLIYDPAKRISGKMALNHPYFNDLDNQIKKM

Work on `O=c1ncn2nc(Sc3ccc(F)cc3F)ccc2c1-c1c(Cl)cccc1Cl` [NEFLAMAPIMOD] yielded an inhibition [1] of 0%, an inhibition [2] of 0% and an IC50 (Cytochrome P450 2C19) of over 40 µM. For the same compound, the Cmax [3] was 890 ng/mL, the clearance [4] was 21 mL/min/kg and the Vd [5] was 2.3 L/kg. It also gave an inhibition in vivo at 5 mg/kg (Mus musculus) of 31%, an inhibition [6] of 5% and an inhibition [7] of 5%. The inhibition [8] was 12%, the half-life [9] was 4.5 h and the inhibition [10] was 0%. It also gave a Vd [11] of 3.9 L/kg, a half-life [12] of 4.5 h and an IC50 [13] of over 5 µM. The inhibition [14] was 95%, the half-life [15] was 4.5 h and the inhibition [16] was “inactive”. For the same compound, the inhibition [17] was 6%, the inhibition [18] was 0% and the inhibition [19] was 0%. The inhibition [20] was 7%, the inhibition [21] was “inactive” and the inhibition [22] was 0%. For the same compound, the inhibition [23] was 20%, the bioavailability [24] was 87% and the AUC [25] was 1540 ng·h/mL. The IC50 (Cytochrome P450 2C9) was over 40 µM and the IC50 (Cytochrome P450 3A4) was over 40 µM.
